From patent US12201626B2, “Bifunctional compositions for the treatment of cancer” (ARMACEUTICA, INC., priority 2018, dated 2025)
Entries after “also recorded” stand apart in the source; their conditions may differ.

What was measured:
[1] = target: T1, topoisomerase II (Homo sapiens, UniProt P11388); experiment: TopoGen Topoisomerase II Assay Kit (kDNA decatenation); format: biochemical; details: kDNA plus topoisomerase II; 5, 50, 500 μM PND
T1 construct: purchased TopoGen
Description: FIG. 3. Transcriptome analyses of possible pathways activated by pyronaridine (PND) and target validation. […] Pearson correlation analysis of the transcriptional signature of PND compared to the signatures deposited in LINCS project. Compounds marked correlate with the effects of PND, wherein darker the fill, the better the correlation. […] Lane 1, catenated kinetoplast DNA (kDNA); Lane 2, decatenated kDNA; Lane 3, linear kDNA; Lane 4, kDNA plus topoisomerase II; Lane 5, kDNA plus topoisomerase plus 5 μM of PND; Lane 6, kDNA plus topoisomerase plus 50 μM of PND; Lane 7, kDNA plus topoisomerase plus 500 μM of PND; Lane 8, kDNA plus topoisomerase II plus 1 mM etoposoide (Topo II inhibitor); Lane 9, kDNA plus topoisomerase ii plus PBS; 10, kDNA plus topoisomerase II plus DMSO.
In order to explore the possible Mechanism of Action (MoA) of PND, the transcriptome results for each cell line obtained were compared with the gene-expression data from the LINCS project (http://www.lincsproject.org), that contains the gene-expression profiles from various human cells treated with FDA-approved and withdrawn compounds as well as different well-characterized chemical reagents. It was reasoned that the expression profile of each lead compound should also induce a cellular gene expression response consistent with a known MoA of drugs deposited in LINCS. […]

[2] = system: Calf Thymus DNA; experiment: UV-Visible spectrophotometric titration; format: binding; details: PND 22.8 μM, Tris/HCl buffer, CT DNA additions
Description: UV-Visible measurements were taken in a Varian Cary 100 spectrophotometer. Calf Thymus (CT) DNA and buffers were purchased from Sigma Aldrich. The binding constant of PND with CT DNA was determined by absorption titration at room temperature through stepwise addition of a CT DNA solution (10.1 mM; 5 μL additions) in buffer (5 mM Tris/HCl, 50 mM NaCl, pH=7.39) over a 2 mL working solution of PND (22.8 μM) in the same buffer. Absorption spectra were recorded at 424 nm and the titration was terminated when saturation was reached. In order to determine the binding affinity, the data was fitted to the Scatchard equation r/Cf=K(n−r) (McGhee and von Hippel plots), where r is the number of moles of PND bound to 1 mol of CT DNA, n is the number of equivalent binding sites, and K is the affinity of the complex for those binding sites. Concentrations of free (Cf) and bound (Cb) complexes were calculated from Cf=C(1−α) and Cb=C−Cf, respectively, where C is the total PND concentration. The fraction of the bound complex (α) was calculated from α=(Af−A)/(Af−Ab), where Af and Ab are the absorbances of the free and fully bound drug at the selected wavelengths, and A is the absorbance at any given point during the titration. The plot of r/Cf vs. r gives the binding constant Kb as the slope of the graph. All experiments were performed in triplicate and values of Kb were averaged.

[3] = system: malignancy that was metastatic or unresectable; experiment: Open-label study of oral PND in terminally-ill canine cancer patients; format: in vivo
Description: Due to ethical concerns of treating terminally-ill dogs, there was no placebo group.
The secondary outcomes were: anti-tumor activity, malignancy-associated symptom relief, and the safety and tolerability of PND.
Case 1, Mast cell carcinoma: Dog (Golden Retriever), female, 6 years old, 28.7 kg. Cancer was confirmed by histopathology report. In mid-May 2019 the administration of oral PND to the dog began after which patient received no other cancer medication. Veterinarian expected survival length of between 4 and 6 months at the time of study entry. Patient received 23 mg/kg/day PND (325 mg in the morning and 325 mg in the evening).
Case 2, Osteosarcoma: Dog (Saint Bernard), male, 5 years old, 49.7 kg. On 17 May 2019 the administration of oral PND began after which the patient received no other cancer medication. The veterinarian expected a survival length of between 4 and 6 months at the time of study entry. Patient received 20 mg/kg/day PND (325 mg in the morning and 650 mg in the evening).
Case 3, spindle cell sarcoma: Dog (Border Collie), male, 9 years old, 28.5 kg. In 2014 the dog was diagnosed with a low-grade spindle cell sarcoma, and was due to be euthanized on 11 Feb. 2019, with a life expectancy of 1-2 weeks. Instead, the veterinarian began the administration of oral PND on 11 Feb. 2019 after which patient received no other cancer medication. Patient received 15 mg/kg/day PND (215 mg in the morning and 215 mg in the evening).
Case 4, non-Hodgkin lymphoma: Dog (Boxer), female, 27 kg, 11 years old. Cancer was confirmed by biopsy report. In December 2018 the administration of oral PND to the dog began after which patient received no other cancer medication. Patient received 15 mg/kg/day PND (210 mg in the morning and 210 mg in the evening). However, the administration of PND stopped in February 2019 (due to shipping problems from the USA to Canada) and never resumed.
Case 5, mast cell tumor: Dog, male, 27.9 kg. Cancer was confirmed by histopathology report. A tumor was surgically excised from tongue, and there was no clean border. In December 2018 the administration of oral PND began after which the patient received no other cancer medication. Patient received 15 mg/kg/day PND (210 mg in the morning and 210 mg in the evening).

[4] = system: malignancy that was metastatic or unresectable; experiment: Open-label dose-escalating study of oral PND in terminally-ill human cancer patients
Description: An open-label, dose-escalating study was conducted to assess the longevity and safety of oral pyronaridine tetraphosphate (PND) in five terminally-ill human patients with selected cancers. […] Exclusion criteria included active clinically significant infection, uncontrolled intercurrent illness, neutropenia, and pregnancy.
The PND was obtained from Mangalam Drugs and Organics, Ltd, and the powered PND was encapsulated in size “00” gelatin capsules for oral administration.
Patient were instructed to escalate his or her dose if there was no unacceptable toxicity. […] Study Arm 2 started with a daily dose of 200 mg for 2 weeks, then 400 mg for 2 weeks, then 600 mg onwards. Due to ethical concerns of treating terminally-ill patients, there was no placebo group.
The primary outcomes assessed was the difference between the patient's expected survival length estimated at the time of study entry (estimated at 2-4 weeks for each patient) and his or her actual survival length. The secondary outcomes were malignancy-associated symptom relief, anti-tumor activity, safety, and tolerability of PND.

T1 sequence (P11388 whole entry): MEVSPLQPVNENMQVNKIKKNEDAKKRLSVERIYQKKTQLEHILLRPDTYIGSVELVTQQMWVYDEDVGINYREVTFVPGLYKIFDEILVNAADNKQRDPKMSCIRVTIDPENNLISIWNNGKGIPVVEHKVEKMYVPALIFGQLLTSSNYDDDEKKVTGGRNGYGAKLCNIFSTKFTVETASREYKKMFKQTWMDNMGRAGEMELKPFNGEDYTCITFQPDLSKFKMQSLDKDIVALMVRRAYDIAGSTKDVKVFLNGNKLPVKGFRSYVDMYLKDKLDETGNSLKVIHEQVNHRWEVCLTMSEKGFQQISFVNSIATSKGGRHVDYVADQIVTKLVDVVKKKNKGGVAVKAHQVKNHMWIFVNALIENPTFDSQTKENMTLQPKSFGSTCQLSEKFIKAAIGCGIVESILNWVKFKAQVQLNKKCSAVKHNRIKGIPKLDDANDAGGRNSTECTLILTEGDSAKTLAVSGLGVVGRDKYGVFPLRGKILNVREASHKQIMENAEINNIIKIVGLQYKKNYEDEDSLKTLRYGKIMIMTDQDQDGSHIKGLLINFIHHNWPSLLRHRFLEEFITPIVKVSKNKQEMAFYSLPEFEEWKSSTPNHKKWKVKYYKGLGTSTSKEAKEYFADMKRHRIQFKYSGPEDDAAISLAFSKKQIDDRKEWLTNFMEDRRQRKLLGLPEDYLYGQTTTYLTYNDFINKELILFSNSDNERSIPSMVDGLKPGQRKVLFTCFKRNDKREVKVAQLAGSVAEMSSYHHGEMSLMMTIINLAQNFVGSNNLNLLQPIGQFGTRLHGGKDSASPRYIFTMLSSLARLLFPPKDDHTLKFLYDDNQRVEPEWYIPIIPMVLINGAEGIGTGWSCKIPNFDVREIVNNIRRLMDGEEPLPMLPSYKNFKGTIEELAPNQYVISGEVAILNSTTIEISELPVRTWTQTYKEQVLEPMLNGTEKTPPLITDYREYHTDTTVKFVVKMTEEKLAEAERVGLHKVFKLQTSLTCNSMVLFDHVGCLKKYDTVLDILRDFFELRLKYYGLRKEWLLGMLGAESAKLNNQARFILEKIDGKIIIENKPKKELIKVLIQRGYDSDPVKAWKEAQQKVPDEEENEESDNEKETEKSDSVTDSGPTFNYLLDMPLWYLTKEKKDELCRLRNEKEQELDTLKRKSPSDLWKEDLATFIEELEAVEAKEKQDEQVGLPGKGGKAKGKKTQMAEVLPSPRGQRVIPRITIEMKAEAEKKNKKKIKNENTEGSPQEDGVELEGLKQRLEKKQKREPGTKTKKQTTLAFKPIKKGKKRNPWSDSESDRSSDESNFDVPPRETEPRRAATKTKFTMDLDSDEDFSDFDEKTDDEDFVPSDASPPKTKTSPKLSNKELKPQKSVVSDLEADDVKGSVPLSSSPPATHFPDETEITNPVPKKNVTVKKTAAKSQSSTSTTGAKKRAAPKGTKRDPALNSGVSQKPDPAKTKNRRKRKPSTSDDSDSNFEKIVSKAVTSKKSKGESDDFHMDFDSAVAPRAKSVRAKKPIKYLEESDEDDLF

Question: Which results are given for `COC1=CC=C2Nc3cc(Cl)ccc3C(N=C3C=C(CN4CCCC4)C(=O)C(CN4CCCC4)=C3)=C2N1` [PND, 4-[(7-chloro-2-methoxy-1,5-dihydrobenzo[b][1,5]naphthyridin-10-yl)imino]-2,6-bis(pyrrolidin-1-ylmethyl)cyclohexa-2,5-dien-1-one]?
Answer: inhibition of topoisomerase II activity [1]: activity of PND as a Topoisomerase inhibitor was confirmed; also recorded: inhibition of the topoisomerase II activity in a dose-dependent manner; hypochromic effect at 424 nm [2]: 39%; red-shift of absorbance maximum at 424 nm [2]: 8 nm; study-drug related adverse events ([3]; Case 1, mast cell carcinoma, 23 mg/kg/day oral): no reports of any study-drug related adverse events; survival status ([3]; Case 1, as of June 2019, start mid-May 2019): still alive; possible study-drug related adverse events ([3]; Case 2, osteosarcoma, 20 mg/kg/day oral, resolved with diphenhydramine): drooling, facial swelling, and vomiting; survival status ([3]; Case 2, at June 2019, start 17 May 2019): still alive; study-drug related adverse events ([3]; Case 3, spindle cell sarcoma, 15 mg/kg/day oral): no reports of any study-drug related adverse events except initial vomiting; survival lengthened by ([3]; Case 3, life expectancy 1-2 weeks at entry): 3 months; reduction of volume of each tumor at follow-up ([3]; Case 3, three tumors): approximately 20%; survival lengthened by ([3]; Case 4): 2.5 months; study-drug related adverse events ([3]; Case 4, non-Hodgkin lymphoma, 15 mg/kg/day oral): no reports of any study-drug related adverse events; tumor shrinkage ([3]; Case 4, neck tumor, by March 2019): 70%; tumor volume at follow-up ([3]; Case 5, mast cell tumor, 15 mg/kg/day oral, 2 cm×1 cm versus 2 cm×1 cm): remained the same volume; survival status ([3]; Case 5, as of June 2019, start December 2018): still alive; most recent CBC and CMP results ([4]; Case 1): within normal reference ranges; study-drug related adverse events ([4]; Case 1, hilar cholangiocarcinoma): no reports of any study-drug related adverse events; survival status ([4]; Case 1, June 2019, start 20 Dec. 2018, expected survival 2-4 weeks): still alive; study-drug related adverse events ([4]; Case 2, lung cancer stage IV): no reports of study-drug related adverse events; survival status ([4]; Case 2, start 22 Jan. 2019): passed away on 22 Feb. 2019; study-drug related adverse events ([4]; Case 3, ovarian cancer stage IV): no reports of study-drug related adverse events; survival status ([4]; Case 3, start 15 Jan. 2019): passed away on 29 Jan. 2019; survival status ([4]; Case 4, breast cancer stage IV, start 20 Jan. 2019): passed away on 15 Feb. 2019; most recent CBC and CMP results ([4]; Case 5): within normal reference ranges; study-drug related adverse events ([4]; Case 5, small cell lung cancer stage IV, cleared within a week): irritation on the skin during the first week of treatment; survival status ([4]; Case 5, June 2019, start 29 Jan. 2019): still alive; maximum tolerated dose ([4]; any patient, up to 500 or 600 mg daily): not reached; tolerability ([4]; five patients, 200-600 mg daily oral): well tolerated
